Values quoted from earlier work, collected in patent publication US7132450B2, “Hepatic disorder suppressant” (Kagome Co., Ltd., priority 2000, dated 2006).

Tests used:
[1] = test system: NO and O2^− generation; conditions: reported in literature
[2] = reported in literature

Compound	inhibitory effect on NO and O2^− generation [1]	growth suppressing effect [2]
CCCCC/C=C\C/C=C\CCCCC/C=C/C(=O)CC(O)COC(C)=O (stereo not drawn) [Compound 4]	has inhibitory effect on NO and O2^− generation	
CCCCC/C=C\C/C=C\CCCCCCCC(=O)CC(O)COC(C)=O (stereo not drawn) [Compound 5, persin]	inhibitory effect on NO and O2^− generation	various growth suppressing effect
